Data on four compounds can be found in patent US20090175852A1, “IMIDAZOPYRAZINES AS PROTEIN KINASE INHIBITORS” (Schering Corporation, priority 2006, published 2009).

One assay has as its target Mk2 (Homo sapiens, UniProt P49137). Description: Mk2 kinase inhibition (Table 4 activity data). It counts as biochemical.
The next assay concerns the target T1, CHK-1 (Homo sapiens, UniProt O14757).
T1 sequence (O14757 1-476): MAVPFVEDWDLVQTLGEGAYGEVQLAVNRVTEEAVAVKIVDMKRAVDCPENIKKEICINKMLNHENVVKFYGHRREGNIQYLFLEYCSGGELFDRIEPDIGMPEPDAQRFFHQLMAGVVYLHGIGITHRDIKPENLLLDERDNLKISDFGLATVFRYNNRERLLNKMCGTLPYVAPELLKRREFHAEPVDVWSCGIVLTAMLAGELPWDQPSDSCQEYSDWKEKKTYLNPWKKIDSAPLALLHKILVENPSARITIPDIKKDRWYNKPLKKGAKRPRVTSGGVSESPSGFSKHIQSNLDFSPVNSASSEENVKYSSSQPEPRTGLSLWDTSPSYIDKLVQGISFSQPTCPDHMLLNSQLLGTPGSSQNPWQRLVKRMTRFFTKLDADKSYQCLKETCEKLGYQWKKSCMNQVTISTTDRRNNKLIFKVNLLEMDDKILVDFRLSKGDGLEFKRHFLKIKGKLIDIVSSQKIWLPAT
Briefly: CHK-1 kinase inhibition (Table 4 activity data). It counts as biochemical.

Sequence of Mk2 (P49137 whole entry, species assumed): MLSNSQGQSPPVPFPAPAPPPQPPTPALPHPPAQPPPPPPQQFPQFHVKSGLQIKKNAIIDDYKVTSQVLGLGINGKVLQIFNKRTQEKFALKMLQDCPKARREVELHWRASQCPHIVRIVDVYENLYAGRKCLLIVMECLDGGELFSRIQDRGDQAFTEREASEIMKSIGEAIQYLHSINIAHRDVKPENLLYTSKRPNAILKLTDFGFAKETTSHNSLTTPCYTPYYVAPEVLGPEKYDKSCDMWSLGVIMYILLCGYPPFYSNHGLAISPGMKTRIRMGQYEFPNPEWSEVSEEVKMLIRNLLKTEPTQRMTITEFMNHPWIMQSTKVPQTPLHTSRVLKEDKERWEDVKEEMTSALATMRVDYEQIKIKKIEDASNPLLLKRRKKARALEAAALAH

`NC(=O)c1cccc(-c2cn3c(C(N)=O)cnc(N[C@H]4CCCNC4)c3n2)c1` [Compound 39]: the results for the IC50 against Mk2 and on CHK-1 were 810 nM and 55 nM, respectively. On to `NC(=O)c1cnc(N[C@H]2CC[C@H](N)CC2)c2nc(-c3ccc(Cl)cc3)cn12` [Compound 12], for which the midpoint of inhibition at Mk2, the IC50, lay at 60 nM. Turning to `NC(=O)c1cnc(N[C@H]2CCCNC2)c2nc(-c3ccc(Cl)cc3)cn12` [Compound 5], the IC50 on Mk2 came to 650 nM; against CHK-1, 39 nM.

At CHK-1, `N#Cc1cccc(-c2cn3c(C#N)cnc(N[C@H]4CCCNC4)c3n2)c1` [Compound 44] registered a concentration for half-maximal inhibition (IC50) of 870 nM.

What is called IC50 is the concentration needed to halve the response being measured.
